# Assay results as given in publication PMC4311969 (Journal of the American Chemical Society, 2015).
# Where “and” joins values, the source holds several entries; their conditions need not be identical. Equal entries are not always repeated. Structures can show the parent of a compound that is named as a salt. Where two headings read alike, the source gives them in different places.
# Columns and labels:
# [1] = target: T1, yeast orotidine monophosphate decarboxylase (ScOMPDC) (Saccharomyces cerevisiae, UniProt P03962, C155S); conditions: cited from earlier work; for intrinsic oxydianion binding energy (ΔG^‡): ScOMPDC-catalyzed decarboxylation of EO
# T1 sequence (P03962 1-267 C155S): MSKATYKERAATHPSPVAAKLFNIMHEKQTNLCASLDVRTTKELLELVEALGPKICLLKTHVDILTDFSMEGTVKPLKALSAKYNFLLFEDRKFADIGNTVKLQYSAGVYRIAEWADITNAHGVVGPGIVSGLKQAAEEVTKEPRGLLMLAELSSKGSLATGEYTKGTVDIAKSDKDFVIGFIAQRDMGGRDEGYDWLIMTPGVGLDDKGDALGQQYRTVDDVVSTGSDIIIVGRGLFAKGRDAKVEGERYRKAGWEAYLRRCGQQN
# [2] = target: T2, human liver glycerol 3-phosphate dehydrogenase (hlGPDH) (Homo sapiens, UniProt P21695); assay: Oxydianion activation of hlGPDH-catalyzed reduction of GA by NADH; assay type: biochemical; conditions: for RT ln(K^‡)X, intrinsic Gibbs dianion binding free energy: hlGPDH-catalyzed reduction of GA
# T2 sequence (P21695 1-349): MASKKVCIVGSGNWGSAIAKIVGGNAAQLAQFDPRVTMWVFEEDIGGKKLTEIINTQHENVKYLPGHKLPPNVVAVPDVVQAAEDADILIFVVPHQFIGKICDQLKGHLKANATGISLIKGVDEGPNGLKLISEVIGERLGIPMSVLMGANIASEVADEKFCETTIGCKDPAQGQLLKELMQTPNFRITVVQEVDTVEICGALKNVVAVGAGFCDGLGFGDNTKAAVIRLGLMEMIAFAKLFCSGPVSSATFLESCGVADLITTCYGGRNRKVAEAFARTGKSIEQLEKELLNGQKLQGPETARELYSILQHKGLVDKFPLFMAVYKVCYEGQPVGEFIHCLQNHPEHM
# [3] = target: T3, human liver GPDH (hlGPDH) (Homo sapiens, UniProt P21695); assay type: biochemical; conditions: identical plots at 0.10 or 0.20 mM NADH; printed ≪
# T3 sequence (P21695 1-349): T2 sequence (P21695 1-349)
# [4] = target: T4, yeast triosephosphate isomerase (ScTIM) (Saccharomyces cerevisiae, UniProt P00942); assay: Oxydianion activation of ScTIM-catalyzed reactions of [1-13C]-GA in D2O; assay type: biochemical; conditions: for Kd: read-out: KX, dissociation constant for release of the oxydianion from ScTIM, 20 mM [1-^13C]-GA in D2O, pD 7.0 (20 mM imidazole), I = 0.1 (NaCl), fit to eq 3; for Kd / RT ln(K^‡)X, intrinsic Gibbs dianion binding free energy: 25 °C; for RT ln(K^‡)X, intrinsic Gibbs dianion binding free energy: [1-^13C]-GA in D2O
# T4 sequence (P00942 1-248): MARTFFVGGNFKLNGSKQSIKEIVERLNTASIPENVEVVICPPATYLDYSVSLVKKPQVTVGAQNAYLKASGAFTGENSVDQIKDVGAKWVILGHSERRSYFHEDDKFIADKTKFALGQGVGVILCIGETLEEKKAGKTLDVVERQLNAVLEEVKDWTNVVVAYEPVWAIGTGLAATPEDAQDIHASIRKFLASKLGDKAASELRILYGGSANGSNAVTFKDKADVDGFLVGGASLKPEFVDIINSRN
# [5] = target: T1, yeast orotidine monophosphate decarboxylase (ScOMPDC); assay: Oxydianion activation of ScOMPDC-catalyzed decarboxylation of EO; assay type: biochemical
# ScOMPDC = conditions: cited from earlier work
# [6] = pH 7.5 (10 mM TEA), 25 °C, 0.2 mM NADH, I = 0.12 (NaCl)
compound,measurement,setting,value
O=S(O)O [SO3^2–],intrinsic oxydianion binding energy (ΔG^‡),[1],-8.3 kcal/mol
"O=S(=O)(O)O [SO4^2–, sulfate]","RT ln(K^‡)X, intrinsic Gibbs dianion binding free energy",[2]; 25 °C,–5.9 kcal/mol
same,"(kcat)E·X, first-order rate constant for turnover of the Michaelis complex",[2]; [6],0.360 ± 0.040 s^–1
same,intrinsic oxydianion binding energy (ΔG^‡),[1],-4.5 kcal/mol
"O=P(O)(O)O [HOPO3^2–, phosphate]","RT ln(K^‡)X, intrinsic Gibbs dianion binding free energy",[2]; 25 °C,–4.9 kcal/mol
same,"(kcat)E·X, first-order rate constant for turnover of the Michaelis complex",[2]; [6],0.032 ± 0.002 s^–1
same,intrinsic oxydianion binding energy (ΔG^‡),[1],-3.0 kcal/mol
"O=CCO [GA, glycolaldehyde]","k′cat, turnover of the complex between enzyme and substrate pieces","[2]; GA + HPO3^2–, estimated as [(kcat/Km)E·HPi]Kd",5.5 s^–1
same,"kcat, unactivated reduction of GA","[2]; no dianion, 0.05 mM hlGPDH, pH 7.5, 25 °C, 0.2 mM NADH, I = 0.12 (NaCl)",3.1 × 10^–4 s^–1
same,"KGA, unactivated reduction of GA","[2]; no dianion, carbonyl form of GA, pH 7.5, 25 °C, 0.2 mM NADH, I = 0.12 (NaCl)",6.2 mM
same,Kd,"[2]; read-out: Kd of truncated substrate, substrate pieces, GA + HPO3^2–",5 mM
NC(=O)C1=CN([C@@H]2O[C@H](COP(=O)(O)OP(=O)(O)OC[C@H]3O[C@@H](n4cnc5c(N)ncnc54)[C@H](O)[C@@H]3O)[C@@H](O)[C@H]2O)C=CC1 [NADH],Km,[3],< 100 µM
"O=S(O)(O)=S [S2O3^2–, thiosulfate dianion]",Kd,[4],7 ± 1 mM
same,"(kcat)E·X, first-order rate constant for turnover of the Michaelis complex",[2]; [6],0.0190 ± 0.002 s^–1
same,intrinsic oxydianion binding energy (ΔG^‡),[1],-4.6 kcal/mol
"O=C(O)c1cc(=O)n([C@@H]2OC[C@@H](O)[C@H]2O)c(=O)[nH]1 [EO, 1-(β-D-erythrofuranosyl)orotic acid]","k′cat, turnover of the complex between enzyme and substrate pieces","[5]; EO + HPO3^2–, calculated using published (kcat/Km)E·HPi and Kd (ref 10)",≈ 160 ^f s^–1
same,Kd,"[1]; read-out: Kd of truncated substrate, substrate pieces, EO + HPO3^2–",100 mM and ~100 mM
"O=[PH](O)O [HPO3^2–, phosphite dianion]",intrinsic dianion binding energy (given without sign),[4]; ScTIM,6.3 kcal/mol
same,"RT ln(K^‡)X, intrinsic Gibbs dianion binding free energy",[4]; ScTIM,–6.3 kcal/mol
same,"RT ln(K^‡)X, intrinsic Gibbs dianion binding free energy","[4]; ScTIM, listed as phosphite dianion",−6.3 kcal/mol
same,ratio of (kcat/Km)E·X/KX to (kcat/Km)E,"[4]; ScTIM-catalyzed isomerization, substrate pieces",4.4 × 10^4 M^–1
same,Kd,[4],18 ± 3 mM
same,"RT ln(K^‡)X, intrinsic Gibbs dianion binding free energy",[2]; 25 °C,–7.5 kcal/mol
same,"RT ln(K^‡)X, intrinsic Gibbs dianion binding free energy","[2]; 25 °C, listed as phosphite dianion",−7.5 kcal/mol
same,"(kcat)E·X, first-order rate constant for turnover of the Michaelis complex",[2]; [6],5.5 ± 0.3 s^–1
same,Kd,"[2]; read-out: KX, dissociation constant for release of the oxydianion from the binary or ternary enzyme complex, pH 7.5 (10 mM TEA), 25 °C, 0.2 mM NADH, I = 0.12 (NaCl)",70 ± 4 mM
same,intrinsic dianion binding energy (given without sign),[5]; ScOMPDC,7.7 kcal/mol
same,ratio of (kcat/Km)E·X/KX to (kcat/Km)E,"[5]; yeast OMPDC-catalyzed decarboxylation, substrate pieces",4.4 × 10^5 M^–1
same,intrinsic oxydianion binding energy (ΔG^‡),[1],-7.7 kcal/mol
"O=C(O)c1cc(=O)[nH]c(=O)n1[C@@H]1O[C@H](COP(=O)(O)O)[C@@H](O)[C@H]1O [OMP, Orotidine 5′-monophosphate]","kcat, turnover of whole substrate",ScOMPDC,16 s^–1
O=[As](O)(O)O [HOAsO3^2–],intrinsic oxydianion binding energy (ΔG^‡),[1],no activation detected
